PubChem BioAssay AID623871 (Sanford-Burnham Center for Chemical Genomics, 2012)
Calls of active or inactive are those of the source.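 Rule for the calls: active = IC50 at or below 10 µM; inactive = the rest.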

What follows are molecules tested on H9c2 cardiomyoblasts, 2-deoxyglucose injury, ATP luminescence, 2 h (assay: cardiomyoblast survival under 2-deoxyglucose stress – cell-based, H9c2, ATP luminescence, SAR follow-up (AID 623871)).

| Compound | IC50 |
| --- | --- |
| COc1ccc(S(=O)(=O)N(Cc2cccnc2)Cc2cc3ccccc3[nH]c2=O)cc1 | 53.9 µM (inactive) |
| COc1ccc(-c2cc(C(=O)N(C)C)c3ccccc3n2)cc1OC | > 79 µM (inactive) |
| Cc1ccc(S(=O)(=O)N(Cc2cccnc2)Cc2cc3ccccc3[nH]c2=O)cc1 | > 79 µM (inactive) |
| COc1ccc2c(c1OC)C(=O)N1c3ccccc3C(=O)N(c3ccccc3C)C21 (centres undefined) | 36.1 µM (inactive) |
| NC(=O)c1nsc(C(=O)N(Cc2ccccc2)C(C(=O)NCc2ccc(F)cc2)c2ccc(O)cc2)c1N (centres undefined) | > 79 µM (inactive) |
| COc1ccc(-n2cc(-c3ccccc3)c3c(N4CCCCC4)ncnc32)cc1 | 10.6 µM (inactive) |
| COc1ccc(N2C(=O)c3ccccc3N3C(=O)c4c(ccc(OC)c4OC)C23)cc1 (centres undefined) | 29.3 µM (inactive) |
| COc1ccc2c(c1OC)C(=O)N1c3ccccc3C(=O)N(c3cccc(Br)c3)C21 (centres undefined) | 10.6 µM (inactive) |
| COc1cccc(NC(=O)CN(C)C(=O)c2cc(-c3cccs3)nn2-c2ccccc2)c1 | > 79 µM (inactive) |
| COc1ccc2cc(C(=O)N3CCN(S(=O)(=O)c4cc(C)ccc4C)CC3)c(C)nc2c1 | > 79 µM (inactive) |
| O=c1[nH]c2ccccc2cc1CN(Cc1ccco1)S(=O)(=O)c1ccc(F)cc1 | > 79 µM (inactive) |
| Cc1ccc(S(=O)(=O)N2CCN(C(=O)c3cc(=O)[nH]c4ccccc34)CC2)cc1C | 33.4 µM (inactive) |
| COc1cc(-c2cc(C(=O)Nc3cccc(C(C)=O)c3)c3ccccc3n2)cc(OC)c1OC | 10.7 µM (inactive) |
| COc1cccc(CN(C)C(=O)c2cc(-c3ccc(OC)c(OC)c3)nc3ccccc23)c1 | 15.1 µM (inactive) |
| COc1ccc(-c2cc(C(=O)NCc3ccco3)c3ccccc3n2)cc1OC | 39.2 µM (inactive) |
| NC(=O)c1nsc(C(=O)N(c2cccc(F)c2)C(C(=O)NC2CCCC2)c2ccc(O)cc2)c1N (centres undefined) | > 79 µM (inactive) |
| CCCn1c(SC(C(=O)Nc2cccc(OC)c2)c2ccccc2)nc2ccccc2c1=O (centres undefined) | > 79 µM (inactive) |
| Cc1ccc(NC(=O)CN(C)C(=O)c2cc(-c3cccs3)nn2-c2ccccc2)cc1 | 27.2 µM (inactive) |
| COc1ccc(-c2cc(C(=O)N(C)Cc3ccc(OC)c(OC)c3OC)c3ccccc3n2)cc1OC | 7.31 µM |
| COc1ccc(NC(=O)CN(C)C(=O)c2cc(-c3cccs3)nn2-c2ccccc2)cc1 | 38.6 µM (inactive) |
| COc1ccc2c(=O)c(C(=O)N3CCN(S(=O)(=O)c4c(C)cc(C)cc4C)CC3)c[nH]c2c1 | > 79 µM (inactive) |
| COc1cccc(CN(C)C(=O)c2cc(-c3ccccc3)nc3ccc(C)cc23)c1OC | > 79 µM (inactive) |

| Compound | IC50 |
| --- | --- |
| Cc1ccc2cc(CN(Cc3cccnc3)S(=O)(=O)c3ccc(F)cc3)c(=O)[nH]c2c1 | > 79 µM (inactive) |
| Cc1ccc2cc(CN(C)S(=O)(=O)c3ccc(F)cc3)c(=O)[nH]c2c1 | > 79 µM (inactive) |
| CC(C)CCNC(=O)C(c1ccc(O)cc1)N(C(=O)c1snc(C(N)=O)c1N)c1ccccc1F (centres undefined) | > 79 µM (inactive) |
| COc1ccccc1N1C(=O)c2ccccc2N2C(=O)c3c(ccc(OC)c3OC)C12 (centres undefined) | 42.5 µM (inactive) |
| COCCn1c(SC(C(=O)Nc2cc(C)ccc2C)c2ccccc2)nc2ccccc2c1=O (centres undefined) | 4.01 µM (inactive) |
| COc1ccc2cc(C(=O)N3CCN(S(=O)(=O)c4ccc(C)cc4C)CC3)c(C)nc2c1 | > 79 µM (inactive) |
| COc1ccc(-n2cc(-c3ccccc3)c3c(N4CCCC4)ncnc32)cc1 | > 79 µM (inactive) |
| CCN(CC)S(=O)(=O)c1cc(C(=O)N2CCN(Cc3cccc4cccnc34)CC2)ccc1C | > 79 µM (inactive) |
| Cc1ccc(C)c(S(=O)(=O)N2CCN(C(=O)c3cc4cc(C)ccc4nc3C)CC2)c1 | 46.2 µM (inactive) |
| COc1ccc(-c2cc(C(=O)NCc3ccccc3)c3ccccc3n2)cc1OC | > 79 µM (inactive) |
| Cc1ccccc1N(C(=O)c1snc(C(N)=O)c1N)C(C(=O)NCc1ccc(F)cc1)c1ccc(O)cc1 (centres undefined) | > 79 µM (inactive) |
| CCCN(CC(=O)Nc1ccccc1OC)C(=O)c1cc(-c2cccs2)nn1-c1ccccc1 | > 79 µM (inactive) |
| COc1ccc(-n2cc(-c3ccccc3)c3c(NCc4ccccc4)ncnc32)cc1 | 13.6 µM (inactive) |
| COc1ccc2c(c1OC)C(=O)N1c3ccccc3C(=O)N(c3ccc(F)cc3)C21 (centres undefined) | 39.4 µM (inactive) |
| O=C(C(=O)N1CCCC1)c1c(-c2ccccc2)[nH]c2ccccc12 | > 79 µM (inactive) |
| COCCNC(=O)C(c1ccc(O)cc1)N(C(=O)c1snc(C(N)=O)c1N)c1ccccc1F (centres undefined) | > 79 µM (inactive) |
| COc1cccc(NC(=O)C(Sc2nc3ccccc3c(=O)n2CC(C)C)c2ccccc2)c1 (centres undefined) | 19.5 µM (inactive) |
| Cc1ccc(-c2[nH]c3ccccc3c2C(=O)C(=O)N(C)C)cc1 | > 79 µM (inactive) |
| CCN(CC)C(=O)C(=O)c1c(-c2ccccc2)[nH]c2ccccc12 | > 79 µM (inactive) |
| O=C1c2ccccc2N2C(=O)c3ccccc3[C@H]2N1c1ccccc1 | 34.3 µM (inactive) |
| O=C(C(=O)N1CCCCC1)c1c(-c2ccccc2)[nH]c2ccccc12 | > 79 µM (inactive) |
| CCN(CC(=O)Nc1ccc(OC)cc1)C(=O)c1cc(-c2cccs2)nn1-c1ccccc1 | 6.24 µM |
